Experimental data as given in patent US20120172344A1, “INSULIN-PRODUCING CELL INDUCER, GLUCOSE INTAKE ENHANCER, AND THERAPEUTIC AGENT FOR DIABETES OR DIABETES COMPLICATIONS” (KYUSHU UNIVERSITY, NATIONAL UNIVERSITY CORPORATION, priority 2009, published 2012).

Test system: AKT and Glut4
Experiment: Experimental Example 3: intramuscular expression of AKT and Glut4 (western blot, immunostaining)
Format: in vivo, mouse
Excerpt: Primary antibodies: Anti-insulin antibody (dilution rate 1:500; DAKO), anti-glucagon antibody (dilution rate 1:500; Linco Research Inc.), anti-DBA antibody (dilution rate 1:300; Vector Laboratories), anti-Pdx-1 antibody (dilution rate 1:1000; kindly provided by Chris V. E. Wright, Vanderbilt University), anti-collagen type IV antibody (dilution rate 1:250; PROGEN Biotechnik), and anti-Glut 4 antibody (dilution rate 1:1000; Chemicon).
The primary antibodies were detected by immunofluorescence labeling using secondary antibodies conjugated with Alexa 488 or Alexa 568 (1:200; Molecular Probes); third antibody conjugated with biotin-labeled secondary antibodies and streptavidin Alexa 488 or Alexa 568 (1:800; Vector Laboratories); or by an immunoperoxidase staining method using biotin-labeled secondary antibodies. Staining was visualized with diaminobenzidine. The sections were counterstained with hematoxylin. Images were captured on a BZ9000 microscope (Keyence), or in the confocal mode on an LSM 510 META confocal microscope (Carl Zeiss). Immunofluorescence intensity was measured in random fields (n=30/section) using LSM Zeiss software, and the result was expressed as average pixel intensity.
Mice were sacrificed, and the EDL, tibialis anterior, and gastrocnemius muscles were removed and snap-frozen in liquid nitrogen. […]
Protein levels were quantified using NIH Image. […]

Compound: C[C@]12CC[C@@H]3c4ccc(O)cc4CC[C@H]3[C@@H]1CC[C@@H]2O [estradiol, 17β-estradiol]
- glucose transporter (Glut4) in muscle cells (Tg mice in Tx-E group): increased
- expression of intramuscular AKT and Glut4 (Tg mice, Tx + 17β-estradiol pellet s.c.): upregulates
